According to the NIST ThermoML archive (doi:10.1021/je0302304):

Assay: refractive index (Na D-line) (dimensionless); xn = mol fraction of the nth substance listed
Conditions: 101.32 kPa, Liquid, Standard Abbe refractometry

COCCOCCOCCOCCOC [2,5,8,11,14-pentaoxapentadecane] + CCO
refractive index
Conditions | 288.15 K | 298.15 K | 308.15 K | 318.15 K
x1 = 0.0045 | 1.3644 | 1.3604 | 1.3564 | 1.3522
x1 = 0.0085 | 1.3656 | 1.3615 | 1.3575 | 1.3533
x1 = 0.0125 | 1.3667 | 1.3627 | 1.3586 | 1.3545
x1 = 0.0165 | 1.3678 | 1.3638 | 1.3598 | 1.3556
x1 = 0.0205 | 1.3689 | 1.3649 | 1.3608 | 1.3567
x1 = 0.0305 | 1.3714 | 1.3674 | 1.3634 | 1.3593
x1 = 0.05 | 1.376 | 1.372 | 1.368 | 1.3641
x1 = 0.1 | 1.3858 | 1.3819 | 1.3779 | 1.3741
x1 = 0.15 | 1.3936 | 1.3897 | 1.3857 | 1.3818
x1 = 0.2 | 1.3999 | 1.396 | 1.392 | 1.3881
x1 = 0.25 | 1.405 | 1.4011 | 1.3971 | 1.3931
x1 = 0.3 | 1.4093 | 1.4053 | 1.4013 | 1.3973
x1 = 0.35 | 1.4129 | 1.4089 | 1.4049 | 1.4009
x1 = 0.4 | 1.4159 | 1.412 | 1.408 | 1.404
x1 = 0.45 | 1.4186 | 1.4146 | 1.4106 | 1.4067
x1 = 0.5 | 1.4209 | 1.417 | 1.413 | 1.409
x1 = 0.55 | 1.423 | 1.419 | 1.415 | 1.411
x1 = 0.6 | 1.4248 | 1.4208 | 1.4168 | 1.4128
x1 = 0.6499 | 1.4264 | 1.4225 | 1.4184 | 1.4144
x1 = 0.7 | 1.4279 | 1.4239 | 1.4199 | 1.4159
x1 = 0.7498 | 1.4292 | 1.4252 | 1.4212 | 1.4172
x1 = 0.7999 | 1.4304 | 1.4264 | 1.4224 | 1.4184
x1 = 0.8499 | 1.4315 | 1.4275 | 1.4234 | 1.4194
x1 = 0.8997 | 1.4326 | 1.4285 | 1.4244 | 1.4204
x1 = 0.9496 | 1.4335 | 1.4294 | 1.4253 | 1.4213
x1 = 1 | 1.4344 | 1.4303 | 1.4262 | 1.4221
